Source: US20240391960A1, “EXTRACELLULAR CYCLOPHILIN INHIBITOR AND USE THEREOF” (PEKING UNIVERSITY SHENZHEN GRADUATE SCHOOL, priority 2021, published 2024)

How the values were obtained:
albumin (BSA) = albumin (BSA) (Bos taurus, UniProt P02769); assay: Albumin cysteine reaction site, bottom-up peptide LC-ESI-MS; settings: pancreatin digest, peptide GLVLIAFSQYLQQCPFDEHVK
Procedure: The complex of Example 4 was denatured with urea, and the diluted protein sample was added in the proportion of pancreatin:protein=1:50. After enzymatic hydrolysis at 37° C. for 18 h, the peptide sample was desalted using Pierce® Spin Columns (Thermo Fisher) desalting column. The eluate was eluted with 70% acetonitrile, lyophilized, dissolved with 0.1% formic acid in water, and the peptide was analyzed by LC-ESI-MS, and the modified sites were analyzed using BioPharma Finder software (Thermo Fisher).

Jurkat cells = assay: High resolution mass spectrometry determination of molecular penetration in Jurkat cells; assay type: in vitro ADME; settings: 5 μM compound, 37° C., 2 hours
Text: For direct detection of molecular penetration, intracellular compound concentrations were quantified by an external standard method using a QE-Focus mass spectrometer.
The m/z signal of the corresponding molecule is selected to perform peak extraction on the chromatogram to obtain an ion chromatogram (EIC) corresponding to the extraction of the molecule, and then the concentration of the extract is quantified using the peak area under the curve of the EIC of the cell extract.

intracellular CypA = molecular target: T1, intracellular CypA (Homo sapiens, UniProt P62937); assay: Fluorescence competition flow cytometry with CsA-FITC probe in Jurkat cells; assay type: cell-based; settings: CsA-FITC labelled Jurkat cells
T1 construct: endogenous in cells; host or cells: Jurkat
T1 sequence (P62937 whole entry): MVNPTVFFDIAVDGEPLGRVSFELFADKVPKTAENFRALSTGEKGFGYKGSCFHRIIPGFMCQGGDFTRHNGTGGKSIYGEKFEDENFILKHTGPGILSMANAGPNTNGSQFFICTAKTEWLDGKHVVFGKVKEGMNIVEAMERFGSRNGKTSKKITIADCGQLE

CypA [1] = molecular target: T2, CypA (Homo sapiens, UniProt P62937); assay: Competitive fluorescence polarization binding assay
T2 sequence (P62937 whole entry, species assumed): as the sequence (P62937 whole entry) above
Text: Fluorescence polarization (FP) is a widely used technique for measuring ligand-receptor binding in solution systems. Free fluorescent probes in the free state rotate rapidly in the system and the emitted fluorescence is mostly depolarized light. Once the probe binds to a larger molecule, the rotation of the molecule is restricted, and the emission of polarized light increases.

CypA [2] = molecular target: T2, CypA; assay: PPIase activity, chymotrypsin hydrolysis of N-Succinyl-Ala-Ala-Pro-Phe p-nitroanilide; assay type: biochemical; settings: 50 nM CypA, 250 μg/mL chymotrypsin, 80 μM substrate peptide; read-out: IC50, CypA enzymatic activity
Procedure: The effect of inhibitors on CypA enzyme activity was determined using the chymotrypsin hydrolysis of N-Succinyl-Ala-Ala-Pro-Phe p-nitroanilide substrate peptide. […] When catalyzed by proline cis-trans isomerase, its configuration changes from cis to trans, which can be specifically cleaved by chymotrypsin and release p-nitroanilide with maximum absorption around 390 nm. Thus, the stronger the CypA enzyme activity is, the faster the substrate is degraded, and the faster the absorbance at 390 nm increases. Kinetic monitoring was initiated by the addition of 250 μg/mL chymotrypsin and finally, 80 μM of an ultra-dry substrate peptide solution (470 mM LiCL in trifluoroethanol) using a microplate reader with an autosampler after binding to different concentrations of inhibitors using 50 nM CypA.

NFAT = NFAT dephosphorylation in PMA/ionomycin activated Jurkat cells, Western blot; assay type: cell-based; settings: 1.5 h preincubation, 25 nM PMA and 1 μg/mL ionomycin 2 h
Text: Based on this, the present inventors investigated the effect of molecules on NFAT signal transduction during JurkatT cell activation by ionomycin and PMA. […] After the collection of cells, the dephosphorylation level of NFAT protein was detected by extraction, electrophoresis, transfer printing, and NFAT antibody. Dephosphorylation of NFAT results in two bands, phosphorylated and nonphosphorylated.

IL-2 = IL-2 secretion of activated Jurkat cells, ELISA; assay type: cell-based; settings: 4MCsA up to 5 μM, 24 h PMA and ionomycin stimulation
Procedure: Meanwhile, the present invention further examined the secretion of IL-2 protein downstream of T-cell activation in which NFAT was involved, and the IL-2 protein content in the culture medium was measured using the ELISA method after 24 h of PMA and ionomycin stimulation.

IL-8 = assay: CypA-stimulated IL-8 transcription in THP1 cells, RT-PCR; assay type: cell-based; settings: CypA 12 hours, medium with 0.1% BSA
THP-1 cells = assay: Transwell CypA-induced THP-1 cell migration; assay type: cell-based; settings: 200 ng/ml CypA, 1 hour
[3] = system: HEK293 human kidney cells; assay: MTT cytotoxicity; assay type: cell-based; settings: HEK293, medium with 4% BSA, 30 hours, up to 50 μM
CypA [4] = assay: Serum CypA content in T2DM model mice, ELISA; assay type: in vivo; settings: DB diabetic mice, tail vein weekly for 3 weeks
Text: This example examined the effect of drugs on serum CypA contents in mice using db/db genetically engineered mice deficient in leptin receptors (DB mice) as a T2DM model (C57 mice as a healthy control group).

[5] = Fasting blood glucose and glycated hemoglobin in T2DM mouse models; assay type: in vivo, mice
Text: To effectively evaluate the effect of the drug on T2DM, this example selected DB mice and high fat diet-induced obese mouse models (HFD mice) as two different predisposing mouse models of type 2 diabetes as subjects.

[6] = Glucose tolerance test (GTT); assay type: in vivo, mice
insulin = assay: Basal and glucose-stimulated insulin secretion, ELISA; assay type: in vivo, mice
[7] = Insulin tolerance test (ITT); assay type: in vivo, mice
Procedure: Insulin signaling response was further measured by performing an insulin sensitivity test (insulin tolerance test, ITT) on each of the two mice in Example 15. After the mice were fasted for 6 hours, insulin (2 U/kg for DB mice and 1 U/kg for HFD mice) was injected intraperitoneally, and then the blood glucose contents were measured at different time points.

TNF-a, IL-1β = assay: Serum inflammatory factors in DB mice, ELISA; assay type: in vivo; settings: 42 days of administration
[8] = system: CT26-LUC mouse colon cancer cells; assay: CT26-LUC mouse colon cancer tumor model; assay type: in vivo; settings: Balb/C mice, subcutaneous CT26-LUC, 5 mg/kg, three weeks
Procedure: This example establishes a mouse tumor model to reflect the effect of the drug by measuring the size of the tumor.
CT26-LUC mouse colon cancer cells were inoculated subcutaneously on the dorsal side of Balb/C mice in an amount of […]. Six days later, the tumor size was about 100 mm^3. The simultaneous administration was measured with vernier caliper and the administration dose of 4MCsA was 5 mg/kg. The tumors were measured once every two days and the tumor size was counted. The experiment was terminated after three weeks.

CD8T cells = assay: CD8 T cell infiltration in the tumor microenvironment, frozen section immunofluorescence; assay type: in vivo, mice; settings: tumor frozen sections
Procedure: The thickness of the frozen section is required to be 4-8 μm, place it at room temperature for 30 min after taking it out from −80° C., fix it in acetone at 4° C. for 10 min, wash with PBS, 5 min×3; block with 5-10% normal goat serum (diluted in PBS) and incubate at room temperature for 10 minutes. […] PBS flush, 5 min×3 times; add the appropriately diluted biotin-labeled secondary antibody (diluted in 1% BSA-PBS) dropwise, and incubate at 37° C. for 90-120 minutes; or second-generation horseradish enzyme-labeled streptavidin working solution, incubate at 37° C. or room temperature for 10-30 minutes; the PBS was washed 5 minutes×3 times, mounted and photographed using an inverted fluorescence microscope. Finally, ImageJ was used for statistical analysis.

[9] = Aortic lesion extent in high-fat diet induced atherosclerotic mice, oil red O; assay type: in vivo, ApoE gene-deficient C57BL/6J mice; settings: ApoE-/- mice, Western diet, 5 mg/kg/week tail vein, 9 weeks
Procedure: Five-week-old ApoE gene-deficient C57BL/6J mice were randomly divided into two groups and fed with the Western diet for high-fat induction. From the 7th week, the experimental group received 4MCsA at a dose of 5 mg/kg/week via tail vein injection for 9 weeks. At the end of the experiment, the experimental animals were euthanized, dissected, and perfused with 10 mL of tissue fixative (4% paraformaldehyde) and 10 mL of […] from the right atrial appendage. The aorta was isolated intact under stereoscope and extravascular adherent adipose tissue was dissected with fat forceps. The isolated aorta was stained with oil red O, photographed, and recorded, and the lesion area of the aortic arch in the experimental group and the control group was counted with ImageJ, and the difference was statistically significant.

CRP = assay: Serum CRP in high-fat diet-induced atherosclerotic mice; assay type: in vivo; settings: ApoE-/- mice, 5 mg/kg weekly, 9 weeks
Procedure: After successful modeling of atherosclerotic mice, the effect of the compounds on the development of cardiovascular disease was evaluated by assessing the risk of developing cardiovascular disease in the body by measuring CRP levels in the serum of experimental mice given weekly tail vein injections of 5 mg/kg 4MCsA for 9 weeks as described in Example 23.

[10] = Serum blood lipid markers in high-fat diet-induced atherosclerotic mice; assay type: in vivo; settings: ApoE-/- mice, 5 mg/kg once a week, 9 weeks
Procedure: A mouse model of atherosclerosis induced by a high-fat diet was established as described in Example 23 and administered in groups, 4MCsA at 5 mg/kg or placebo via tail vein once a week for 9 consecutive weeks, after which the mice were euthanized and serum was collected for routine lipid profile testing.

[11] = Serum ALT, AST in high-fat diet-induced atherosclerotic mice; assay type: in vivo; settings: ApoE-/- mice, 5 mg/kg once a week, 9 weeks
Text: Atherosclerosis model in mice was induced and administered as described in Example 25. At the end of the experimental period, the mice were euthanized and serum was taken for determination of ALT and AST contents.

[12] = Hepatorenal toxicity evaluation, serum ALT, AST, creatinine, urea; settings: 50 days
[13] = DB and HFD mice, once weekly tail vein, compared to CsA
[14] = HFD mice, within 36 hours on day 23 of dosing
[15] = HFD mice, within 60 hours on day 17 of dosing

Sequence of albumin (BSA) (P02769 25-607): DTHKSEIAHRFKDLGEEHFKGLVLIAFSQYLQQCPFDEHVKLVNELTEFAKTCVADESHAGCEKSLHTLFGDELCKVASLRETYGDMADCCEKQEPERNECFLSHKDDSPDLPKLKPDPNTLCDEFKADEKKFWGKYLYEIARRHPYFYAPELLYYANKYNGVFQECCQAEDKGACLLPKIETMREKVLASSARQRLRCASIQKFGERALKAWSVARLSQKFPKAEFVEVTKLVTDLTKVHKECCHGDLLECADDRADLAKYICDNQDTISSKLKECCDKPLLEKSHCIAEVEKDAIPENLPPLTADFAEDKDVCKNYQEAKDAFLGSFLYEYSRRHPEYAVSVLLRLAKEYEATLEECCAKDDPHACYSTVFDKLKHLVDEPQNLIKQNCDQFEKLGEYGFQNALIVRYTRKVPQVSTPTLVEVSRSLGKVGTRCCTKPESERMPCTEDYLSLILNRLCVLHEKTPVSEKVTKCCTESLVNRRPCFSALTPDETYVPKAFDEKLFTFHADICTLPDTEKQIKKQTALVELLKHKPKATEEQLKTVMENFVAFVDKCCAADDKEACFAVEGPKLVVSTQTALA

## CC=CCC(C)C(O)C1C(=O)NC(CC)C(=O)N(C)CC(=O)N(C)C(CCCCNC(=O)CCCCCN2C(=O)C=CC2=O)C(=O)NC(C(C)C)C(=O)N(C)C(CC(C)C)C(=O)NC(C)C(=O)NC(C)C(=O)N(C)C(CC(C)C)C(=O)N(C)C(CC(C)C)C(=O)N(C)C(C(C)C)C(=O)N1C (stereo not shown) [Compound 4MCsA]
Albumin (BSA)
  modification site on BSA: Cys34
Jurkat cells
  Intracellular conc. (μM): not detected
Intracellular CypA
  effect on the intracellular fluorescence signal: very little effect
CypA [1]; 50 nM CypA, 20 nM CsA-FITC probe
  Ki: 198 ± 17 nM
CypA [2]
  IC50: 22.6 ± 4.3 nM
NFAT
  NFAT dephosphorylation induced by PMA and ionomycin: no significant effect
IL-2
  secretion of IL-2: hardly affected
IL-8
  eCypA-increased transcription level of mRNA of IL-8: significantly inhibited
THP-1 cells
  migration activity promoted by CypA: significantly abolished
[3]
  cytotoxicity, cell survival by MTT: little cytotoxicity
CypA [4]
  blood CypA contents: decreased
[5]; [13]
  fasting blood glucose: significantly decreased
  glycated hemoglobin contents: decreased
[5]; normal C57 mice, 5 mg/kg/week, after 5 weeks
  fasting blood glucose vs C57 ctrl: comparable to the normal group
[6]; C57 healthy mice
  GTT AUC: less than that in CsA group
[6]; DB mice, 5 mg/kg group vs Ctrl
  GTT area under the curve (AUC): significantly reduced
[6]; DB mice, 5 mg/kg, after 5 weeks, glucose 1 g/kg i.p.
  glucose tolerance status (GTT): significantly improved
[6]; [14]
  GTT: significant improvement
  GTT AUC: significant decrease
[6]; [15]
  GTT: remained significantly improved
  GTT AUC: significantly reducing
insulin; DB mice
  basal level of insulin: little effect
  glucose-stimulated insulin secretion vs DB ctrl: no significant difference
insulin; healthy C57 mice
  glucose-stimulated insulin secretion vs C57 ctrl: increased
[7]; DB mice, 1 and 5 mg/kg/week
  dose dependence of the effect on ITT: dose-dependent
[7]; DB mice, insulin 2 U/kg i.p.
  insulin sensitivity (ITT): significantly improved
[7]; HFD mice
  ITT AUC compared with CsA: lower AUC
[7]; HFD mice, insulin 1 U/kg i.p.
  insulin resistance caused by obesity (ITT): attenuated insulin resistance
TNF-a, IL-1β
  level of IL-1β: significantly reduce
  level of TNF-a: significantly reduce
[8]
  tumor size: certain antitumor effect
CD8T cells
  infiltration of CD8T cells in the tumor microenvironment: promote the infiltration
[9]
  lesion area of the aortic arch vs control group: significantly reduced
CRP
  CRP content in the serum: very significantly reduce
[10]
  HDL-C content: increased
  TC content: no significant effect
  TC/HDL-C: significantly reduce
  TG content: no significant effect
  serum LDL-C content: significantly decreased
[11]
  activity of ALT in the serum: no significant change
  activity of AST in the serum: no significant change
[12]; C57 healthy mice
  ALT level: remained close to those of healthy controls
  AST level: remained close to those of healthy controls
  urea level: remained close to those of healthy controls
[12]; DB mice
  creatinine level between groups: no difference
  hepatorenal toxicity (ALT, AST): not further enhanced
  urea level between groups: no difference

## CCC1NC(=O)C(C(O)C(C)CC=Cc2ccc(C(=O)NCCOCCNC(=S)Nc3ccc(-c4c5ccc(=O)cc-5oc5cc(O)ccc45)c(C(=O)O)c3)cc2)N(C)C(=O)C(C(C)C)N(C)C(=O)C(CC(C)C)N(C)C(=O)C(CC(C)C)N(C)C(=O)C(C)NC(=O)C(C)NC(=O)C(CC(C)C)N(C)C(=O)C(C(C)C)NC(=O)C(CC(C)C)N(C)C(=O)CN(C)C1=O (stereo not shown) [CsA-FITC, reference compound]
Intracellular CypA
  proportion of fluorescent cells: 95.30%
CypA [1]; fluorescence polarization, probe itself, read-out: binding constant Kd with CypA
  Kd: 14.8 ± 0.7 nM
